The text below walks through data of patent US20250206751A1, “HETEROCYCLIC COMPOUND FOR INDUCING DEGRADATION OF G12D MUTANT KRAS PROTEIN” (Astellas Pharma Inc., priority 2022, published 2025).

One test concerns the target T1, KRAS G12D protein (Homo sapiens, UniProt P01116, G12D).
T1 construct: host or cells: AsPC-1
As to the kind of experiment: KRAS degradation activity by Cell ELISA in AsPC-1 (Test Example 1). In kind it is cell-based. The settings on record: AsPC-1 cells, cultured overnight with compound, corrected with β-actin, read-out: DC50 (50% degradation concentration of the amounts of KRAS). In short, it runs like this: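 AsPC-1 cells (KRAS G12D), 2.0×10^4/well, treated overnight with compound (10 points, 10 μM–0.3 nM final) in RPMI 1640/10% FBS. Fixed cells immunostained for G12D-specific Ras and β-actin, with near-IR fluorescence read. Ras/actin ratio scaled DMSO = 0% and actin-only = 100%, and DC50 fitted by Sigmoid-Emax regression.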
(In an ELISA, binding on a coated surface is turned into a signal by an enzyme label.)

Test [1] deals with human KRAS G12D mutant-positive PK-59 pancreatic cancer cell line-derived xenograft. As to the kind of experiment: Anti-tumor activity in PK-59 xenograft mice (Test Example 4). In kind it is in vivo. The settings on record: 10 mg/kg into tail vein, once a week, twice in total; PK-59 xenograft nude mice. Here is the method:
Test Example 4: Evaluation of Anti-Tumor Activity in Human KRAS G12D Mutant -Positive PK-59 Pancreatic Cancer Cell Line-Derived Xenograft Mice
PK-59 cells (RIKEN BRC, RCB1901) were cultured using a RPMI 1640 medium containing 10% fetal bovine serum in the presence of 5% CO2 at 37° C. The PK-59 cells were collected and suspended in PBS, and after adding an equal amount of Matrigel (from Becton, Dickinson and Company), 4-5-week-old male nude mice (CAnN.Cg-Foxn1^nu/CrlCrlj (nu/nu), from Charles River Laboratories Japan) were subcutaneously inoculated with the cell suspension of 1.0-2.0×10^7 cells/mL in a volume of 100 μL per mouse. About two weeks after the inoculation, the mice were divided into groups so that all the groups had approximately the same tumor volume and body weight, and administration of test compounds was started on the next day. The study was conducted for 5 mice each of a vehicle group and test compound administration groups. The compounds were dissolved in a solvent containing ethanol (from FUJIFILM Wako Pure Chemical Corporation), a 5% glucose solution (from Otsuka Pharmaceutical), 1M hydrochloric acid (from Kanto Chemical Co., Inc.), 50% (2-hydroxypropyl)-β-cyclodextrin (HP-βCD) solution (from ROQUETTE), HCO-40 (from Nikko Chemicals Co., Ltd.) and 1M sodium hydroxide solution (from Kanto Chemical Co., Inc.) at a liquid amount ratio of 4:84.4:1.1:1:9:0.5. The test compounds dissolved in the respective solvent for the test compound administration groups and the solvent for the vehicle group were administered into tail vein. The administration was performed once a week and twice in total. The tumor sizes and the body weights were measured twice a week. The tumor volumes were calculated using the following equation.
[Tumor volume (mm^3)]=[Long diameter of the tumor (mm)]×[Short diameter of the tumor (mm)]^2×0.5
The tumor growth inhibition rate (%) by the test compounds were calculated with the tumor volumes of the test compound administration groups on the previous day of the start of the administration taken as 100% inhibition and the tumor volumes of the vehicle groups two weeks after the initial administration taken as 0% inhibition. In addition, when the tumor volume of a test compound administration group was smaller than the tumor volume on the previous day of the start of the administration, the tumor regression rate (%) by the test compound was calculated with the tumor volume on the previous day of the start of the administration taken as 0% regression and with the tumor volume 0 taken as 100% regression.

T1 sequence (P01116 1-188 isoform P01116-2 G12D): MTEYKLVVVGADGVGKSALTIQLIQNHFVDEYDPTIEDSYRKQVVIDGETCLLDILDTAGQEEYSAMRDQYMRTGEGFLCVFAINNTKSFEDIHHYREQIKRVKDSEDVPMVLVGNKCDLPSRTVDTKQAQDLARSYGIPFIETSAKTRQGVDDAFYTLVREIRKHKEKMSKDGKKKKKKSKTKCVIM

As to `Cc1ncsc1-c1ccc([C@H](CO)NC(=O)[C@@H]2C[C@@H](O)CN2C(=O)[C@H](C(C)C)n2cc(-c3ccc(COc4c(-c5c(C)c(F)cc6[nH]ncc56)c(C5CC5)cc5c(N(C)[C@H]6CCNC6)nc(OC[C@H]6CCCO6)nc45)cc3)nn2)cc1` (atropisomer, axis not shown; (M)) [Example 9, (4R)-1-[(2S)-2-{4-[4-({[(7M) 6-cyclopropyl-7-(6-fluoro-5-methyl-1H-indazol-4-yl)-4-{methyl[(3S)-pyrrolidin-3-yl]amino}-2-{[(2R)-oxolan-2-yl]methoxy}quinazolin-8-yl}oxy}methyl)phenyl]-1H-1,2,3-triazol-1-yl}-3-methylbutanoyl]-4-hydroxy-N-{(1R)-2-hydroxy-1-[4-(4-methyl-1,3-thiazol-5-yl)phenyl]ethyl}-L-prolinamide], the DC50 on KRAS G12D protein is 15 nM. For the same compound, the “Anti-Tumor Activity Two Weeks After Initial Administration: tumor growth inhibition rate” value in test [1] was determined as 81% inhibition.

For the compound `CO[C@@H](C)COc1cc(N(C)[C@H]2CCNC2)c2cc(C3CC3)c(-c3c(C)c(F)cc4[nH]ncc34)c(OCc3ccc(-c4cn([C@H](C(=O)N5C[C@H](O)C[C@H]5C(=O)N[C@@H](CO)c5ccc(-c6scnc6C)cc5)C(C)C)nn4)cc3)c2n1` (atropisomer, axis not shown; (M)) [Example 11, (4R)-1-[(2S)-2-{4-[4-({[(7M)-6-cyclopropyl-7-(6-fluoro-5-methyl-1H-indazol-4-yl)-2-[(2S)-2-methoxypropoxy]-4-{methyl[(3S)-pyrrolidin-3-yl]amino}quinazolin-8-yl]oxy}methyl)phenyl]-1H-1,2,3-triazol-1-yl}-3-methylbutanoyl]-4-hydroxy-N-{(1R)-2-hydroxy-1-[4-(4-methyl-1,3-thiazol-5-yl)phenyl]ethyl}-L-prolinamide], the DC50 at KRAS G12D protein is 10 nM. Also, the “Anti-Tumor Activity Two Weeks After Initial Administration: tumor regression rate” value in test [1] is listed as 6% regression.

`CCn1nccc1-c1ccc([C@H](CO)NC(=O)[C@@H]2C[C@@H](O)CN2C(=O)[C@H](C(C)C)n2cc(-c3ccc(COc4c(-c5c(C)c(F)cc6[nH]ncc56)c(C5CC5)cc5c(N(C)[C@H]6CCNC6)nc(OC[C@H](C)OC)nc45)cc3)nn2)cc1` (atropisomer, axis not shown; (M)) [Example 13]: the DC50 at KRAS G12D protein worked out at 10 nM. Moreover, the “Anti-Tumor Activity Two Weeks After Initial Administration: tumor regression rate” value in test [1] was found to be 26% regression.

For the compound `CCN(c1nc(OC[C@H](C)OC)nc2c(OCc3ccc(-c4cn([C@H](C(=O)N5C[C@H](O)C[C@H]5C(=O)N[C@@H](CO)c5ccc(-c6scnc6C)cc5)C(C)C)nn4)cc3)c(-c3c(C)c(F)cc4[nH]ncc34)c(C3CC3)cc12)[C@H]1CCNC1` (atropisomer, axis not shown; (M)) [Example 50, (4R)-1-[(2S)-2-(4-{4-[({(7M)-6-cyclopropyl-4-{ethyl[(3S)-pyrrolidin-3-yl]amino}-7-(6-fluoro-5-methyl-1H-indazol-4-yl)-2-[(2S)-2-methoxypropoxy]quinazolin-8-yl}oxy)methyl)phenyl}-1H-1,2,3-triazol-1-yl)-3-methylbutanoyl]-4-hydroxy-N-{(1R)-2-hydroxy-1-[4-(4-methyl-1,3-thiazol-5-yl)phenyl]ethyl}-L-prolinamide], the DC50 on KRAS G12D protein was determined as 18 nM. In addition, in test [1], the “Anti-Tumor Activity Two Weeks After Initial Administration: tumor regression rate” value turned out to be 20% regression.

Regarding `CO[C@@H](C)COc1nc(N(C)[C@@H]2CCNC2)c2cc(C3CC3)c(-c3c(C)c(F)cc4[nH]ncc34)c(OCc3ccc(-c4cn([C@H](C(=O)N5C[C@H](O)C[C@H]5C(=O)N[C@@H](CO)c5ccc(-c6scnc6C)cc5)C(C)C)nn4)cc3)c2n1` (atropisomer, axis not shown; (M)) [Example 53], the DC50 at KRAS G12D protein turned out to be 7 nM. Moreover, the “Anti-Tumor Activity Two Weeks After Initial Administration: tumor regression rate” value in test [1] is reported as 53% regression.
